# Test results reported in patent US20130164325A1, “CERAMIDE-LIKE GLYCOLIPID-ASSOCIATED BACTERIAL VACCINES AND USES THEREOF” (Albert Einstein College of Medicine of Yeshiva University, priority 2010, published 2013).
# Tested on: mouse splenocytes
# Assay: Activation of mouse splenocytes with glycolipid-treated BMDCs, IFNγ production
# Format: cell-based
# Details: free glycolipid, compared to vehicle control (FIG. 5B)
compound,measurement,value
"CCCCCCCCCCCCCCCCCCCCCCCCCC(=O)N[C@@H](CO[C@H]1O[C@H](CO)[C@H](O)[C@H](O)[C@H]1O)[C@H](O)[C@H](O)CCCCCCCCCCCCCC [KRN7000, (2S,3S,4R)-1-O-(α-D-galactopyranosyl)-N-hexacosanoyl-2-amino-1,3,4-octadecanetriol]",IFNγ production,induced IFNγ production
